Experimental findings from patent US8575158B2, “1-phenyl-substituted heterocyclyl derivatives and their use as prostaglandin D2 receptor modulators” (Actelion Pharmaceuticals Ltd., priority 2010, dated 2013) are described below.

What is called IC50 is the point on the concentration scale where inhibition reaches its midpoint.

This experiment has as its target T1, hCRTH2 receptor (Homo sapiens, UniProt Q9Y5Y4).
T1 construct: expressed in transfected cells; host or cells: HEK293
T1 sequence (Q9Y5Y4 1-395): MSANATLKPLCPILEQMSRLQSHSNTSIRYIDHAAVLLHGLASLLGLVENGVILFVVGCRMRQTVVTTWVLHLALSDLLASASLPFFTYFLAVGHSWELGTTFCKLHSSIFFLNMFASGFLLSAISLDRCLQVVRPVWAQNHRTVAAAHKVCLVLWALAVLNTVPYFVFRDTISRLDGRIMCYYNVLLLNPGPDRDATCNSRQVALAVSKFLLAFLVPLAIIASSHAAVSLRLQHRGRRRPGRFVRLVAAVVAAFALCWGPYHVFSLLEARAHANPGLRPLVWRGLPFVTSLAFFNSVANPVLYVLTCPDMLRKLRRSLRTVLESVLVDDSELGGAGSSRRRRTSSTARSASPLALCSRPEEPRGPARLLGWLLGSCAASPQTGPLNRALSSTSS
The experiment is described as follows: Radioligand displacement assay (3H-PGD2) on hCRTH2 receptor membranes. The class given is binding. Particulars: antagonistic activity. As for the experimental part: First, recombinant HEK293-hCRTH2 cells were detached from culture plates into 5 ml buffer A/plate (Buffer A: 5 mM Tris, 1 mM MgCl2-6H2O pH=7.4) using a rubber policeman. Cells were then transferred into centrifugation tubes and centrifuged for 5 min at 400 g. The cell pellet was resuspended in the same buffer and tubes were frozen at −80° C. Cells were thawed and membrane fragments were generated by homogenization using a polytron homogenizer (30 seconds). The membrane fragments were then centrifuged at 3000 g for 20 minutes and resuspended in buffer C (Buffer C: 75 mM Tris, 25 mM MgCl2, 250 mM Saccharose pH 7.4). Aliquots of membrane fragments were stored at −20° C.
Binding assay was performed in a final assay volume of 250 μl. First, 25 μl of test compound, previously diluted in Binding-Buffer (Binding-Buffer: 50 mM Tris-Base, 100 mM NaCl, 1 mM EDTA, 0.1% BSA (protease free), 0.01% NaN3, 10 mM MnCl2, pH 7.0) was placed into each well. After addition of 75 μl Binding-Buffer, 50 μl of the radioligand ^3H-PGD2 (at 2.5 nM (220.000 dpm/well) from ANAWA ART0662) was added to each well. Binding assay was started by addition of 100 μl CRTH2 membrane fragments, reaching a final concentration of 20 μg/well. For non-specific binding, PGD2 was added to the reaction mixture to […] final concentration.
This assay mix was incubated for 90 minutes at room temperature and then filtered through a GF/C filter 96-well plate which was pre-soaked for 3 hours in 0.5% polyethyleneimine (PEI). The filter-wells were washed three times with ice cold Binding-Buffer. Then, 40 μl of Microscint-40 (Packard) was added to each well and the retained radioactivity quantified in a Topcount (Packard).

Where [1] appears, read: 3H-PGD2 radioligand displacement, HEK293-hCRTH2 membranes.
The mark [2] stands for this setting: 3H-PGD2 displacement on HEK293-hCRTH2 membrane fragments.

Under setting [1], `Cc1nn(CCC(=O)N2Cc3ccccc3C2c2cc(Cl)ccc2OCC(=O)O)c2cc(Cl)ccc12` (single isomer, unassigned) [Example 532, (4-Chloro-2-{2-[3-(6-chloro-3-methyl-indazol-1-yl)-propionyl]-2,3-dihydro-1H-isoindol-1-yl}-phenoxy)-acetic acid] came in with an IC50 of 40.7 nM.
In turn, `O=C(O)COc1ccc(Cl)cc1C1c2ccccc2CCN1C(=O)OCc1ccccc1` (racemic) [Example 21, (±)-1-(2-Carboxymethoxy-5-chloro-phenyl)-3,4-dihydro-1H-isoquinoline-2-carboxylic acid benzyl ester] gave a 50% inhibitory concentration (IC50) under setting [2] of 6.87 nM.
For the compound `O=C(O)COc1ccc(F)cc1C1c2cccc(S(=O)(=O)c3ccccc3)c2CCN1C(=O)OCc1ccccc1` (racemic) [Example 187], the IC50 under setting [2] was 241 nM.
As to `O=C(O)COc1ccc(-c2cncnc2)cc1C1c2ccccc2CCN1C(=O)OCc1ccccc1` (racemic) [Example 188, (±)-1-(2-Carboxymethoxy-5-pyrimidin-5-yl-phenyl)-3,4-dihydro-1H-isoquinoline-2-carboxylic acid benzyl ester], the IC50 under setting [2] was 89.4 nM.
Take `Cc1cnn(COC(=O)N2CCc3cc(F)ccc3[C@H]2c2cc(Cl)ccc2OCC(=O)O)c1` [Example 342, (S)-1-(2-Carboxymethoxy-5-chloro-phenyl)-6-fluoro-3,4-dihydro-1H-isoquinoline-2-carboxylic acid 4-methyl-pyrazol-1-ylmethyl ester]: the IC50 under setting [1] was determined as 17.9 nM.
As for `O=C(O)COc1ccc(Cl)cc1[C@@H]1c2ccccc2CCN1C(=O)OCc1nc2ccccc2s1` [Example 294, (S)-1-(2-Carboxymethoxy-5-chloro-phenyl)-3,4-dihydro-1H-isoquinoline-2-carboxylic acid benzothiazol-2-ylmethyl ester], the concentration for half-maximal inhibition (IC50) under setting [1] was found to be 1.94 nM.
In turn, `O=C(O)COc1ccc(Cl)cc1C1c2ccccc2CCN1C(=O)[C@@H]1C[C@H]1c1cccc(F)c1` (mixture of isomers) [Example 424] came in with a half-inhibitory concentration (IC50) under setting [1] of 12 nM.
`Cc1[nH]c2ccccc2c1CCC(=O)N1CCc2ccccc2C1c1cc(Cl)ccc1OCC(=O)O` (racemic) [Example 73, (±)-(4-Chloro-2-{2-[3-(2-methyl-1H-indol-3-yl)-propionyl]-1,2,3,4-tetrahydro-isoquinolin-1-yl}-phenoxy)-acetic acid] registered an IC50 under setting [2] of 4.13 nM.
For `O=C(O)COc1ccc(Cl)cc1C1c2ccccc2CN1C(=O)NCc1ccccc1F` (racemic) [Example 552], the concentration for half-maximal inhibition (IC50) under setting [1] came to 19.6 nM.
On to `O=C(O)COc1ccc(Cl)cc1C1c2ccccc2CCN1C(=O)CCCc1ccccc1Cl` (racemic) [Example 113, (±)-(4-Chloro-2-{2-[4-(2-chloro-phenyl)-butyryl]-1,2,3,4-tetrahydro-isoquinolin-1-yl}-phenoxy)-acetic acid], for which the IC50 under setting [2] was determined as 25.5 nM.
In turn, `O=C(O)COc1ccc(Cl)cc1C1c2ccccc2CCN1C(=O)[C@@H]1C[C@H]1c1cccc(Cl)c1` (single isomer, unassigned; diastereoisomer 2) [Example 152, (±)-(4-Chloro-2-{2-[(trans)-2-(3-chloro-phenyl)-cyclopropanecarbonyl]-1,2,3,4-tetrahydro-isoquinolin-1-yl}-phenoxy)-acetic acid (diastereoisomer 2)] displayed an IC50 under setting [2] of 33.4 nM.
Under setting [1], `N#Cc1ncccc1OCC(=O)N1CCc2ccccc2C1c1cc(Cl)ccc1OCC(=O)O` (racemic) [Example 480] returned an IC50 of 104 nM.
With `Cn1nccc1COC(=O)N1CCc2ccccc2[C@H]1c1cc(Cl)ccc1OCC(=O)O` [Example 287, (S)-1-(2-Carboxymethoxy-5-chloro-phenyl)-3,4-dihydro-1H-isoquinoline-2-carboxylic acid 2-methyl-2H-pyrazol-3-ylmethyl ester], the half-inhibitory concentration (IC50) under setting [1] amounted to 0.2 nM.
Regarding `O=C(O)COc1ccc(Cl)cc1C1c2ccccc2CCN1C(=O)OCC1CCCC1` (racemic) [Example 264], under setting [2], the IC50 was determined as 13.1 nM.
Compound `N#Cc1ccc(OCC(=O)O)c(C2c3cc(F)cc(F)c3CCN2C(=O)OCc2ccccc2)c1` (racemic) [Example 44, (±)-1-(2-Carboxymethoxy-5-cyano-phenyl)-5,7-difluoro-3,4-dihydro-1H-isoquinoline-2-carboxylic acid benzyl ester] registered an IC50 under setting [2] of 8.34 nM.
With `O=C(O)COc1ccc(Cl)cc1C1c2ccccc2CCN1C(=O)COc1ccc(C(F)(F)F)nc1` (racemic) [Example 481], under setting [1], the IC50 was found to be 143 nM.
For `COc1ccc2[nH]cc(CCC(=O)N3CCc4ccccc4C3c3cc(Cl)ccc3OCC(=O)O)c2c1` (racemic) [Example 74, (±)-(4-Chloro-2-{2-[3-(5-methoxy-1H-indol-3-yl)-propionyl]-1,2,3,4-tetrahydro-isoquinolin-1-yl}-phenoxy)-acetic acid], the IC50 under setting [2] was 1.42 nM.
Under setting [1], `Cc1cc(COC(=O)N2CCc3c(ccc(F)c3F)[C@H]2c2cc(Cl)ccc2OCC(=O)O)n(C)n1` [Example 313, (S)-1-(2-Carboxymethoxy-5-chloro-phenyl)-5,6-difluoro-3,4-dihydro-1H-isoquinoline-2-carboxylic acid 2,5-dimethyl-2H-pyrazol-3-ylmethyl ester] showed a half-maximal inhibitory concentration (IC50) of 2.37 nM.
Compound `O=C(O)COc1ccc(Cl)cc1C1c2ccccc2CCN1C(=O)CSc1cnnn1-c1ccccc1` (racemic) [Example 162] returned a half-inhibitory concentration (IC50) under setting [2] of 115 nM.
On to `O=C(O)COc1ccc(Cl)cc1C1c2cccc(F)c2CCN1C(=O)OCc1ccccc1` (racemic) [Example 18, (±)-1-(2-Carboxymethoxy-5-chloro-phenyl)-5-fluoro-3,4-dihydro-1H-isoquinoline-2-carboxylic acid benzyl ester], for which the half-inhibitory concentration (IC50) under setting [2] stood at 5.43 nM.
Regarding `O=C(O)COc1ccc(Cl)cc1[C@@H]1c2ccccc2CCN1C(=O)[C@@H]1C[C@H]1c1ccccc1` [Example 232, {4-Chloro-2-[(S)-2-((1R,2R)-2-phenyl-cyclopropanecarbonyl)-1,2,3,4-tetrahydro-isoquinolin-1-yl]-phenoxy}-acetic acid], the IC50 under setting [2] is 1.39 nM.
Under setting [1], `O=C(O)COc1ccc(Cl)cc1C1c2ccccc2CCN1C(=O)CCn1ccc2cc(F)ccc21` (racemic) [Example 379] gave an IC50 of 16.8 nM.
With `Cc1ccccc1[C@@H]1C[C@H]1C(=O)N1CCc2ccccc2C1c1cc(Cl)ccc1OCC(=O)O` (mixture of isomers) [Example 422], the IC50 under setting [1] worked out at 5.58 nM.
As to `O=C(O)COc1ccc(Cl)cc1C1c2ccccc2CN1C(=O)CCn1ncc2cccc(F)c21` (single isomer, unassigned) [Example 537, (4-Chloro-2-{2-[3-(7-fluoro-indazol-1-yl)-propionyl]-2,3-dihydro-1H-isoindol-1-yl}-phenoxy)-acetic acid], the IC50 under setting [1] turned out to be 25.8 nM.
`COc1ccc([C@@H]2C[C@H]2C(=O)N2CCc3ccccc3C2c2cc(Cl)ccc2OCC(=O)O)cc1` (mixture of isomers) [Example 417]: the half-maximal inhibitory concentration (IC50) under setting [1] was 187 nM.
Compound `Cc1ccc(COC(=O)N2CCc3ccccc3C2c2cc(Cl)ccc2OCC(=O)O)c(C)c1` (racemic) [Example 245] registered an IC50 under setting [2] of 2.87 nM.
In the case of `O=C(O)COc1ccc(Cl)cc1C1c2ccccc2CCN1C(=O)COc1cccnc1F` (racemic) [Example 482], the concentration for half-maximal inhibition (IC50) under setting [1] was determined as 199 nM.
In turn, `COc1ccccc1CNC(=O)N1CCc2ccccc2C1c1cc(Cl)ccc1OCC(=O)O` (racemic) [Example 202] returned an IC50 under setting [2] of 7.29 nM.
